The values that follow come from the PolyMetriX glass transition set.

As for `*Oc1ccc(Oc2ccc(C(=O)c3cccc(C(=O)c4ccc(*)cc4)c3)cc2)cc1S(=O)(=O)O` (repeat unit), the glass transition temperature came out at 195.00 °C.
The value for `*Oc1ccc(S(=O)(=O)c2ccc(Oc3ccc(C(=O)c4cccc(C(=O)c5ccc(*)cc5)c4)cc3)cc2)cc1` (repeat unit) was 178.00 °C; that for `*c1ccc(-c2ccc(N3C(=O)c4ccc(-c5cccc6c5C(=O)N(*)C6=O)cc4C3=O)cc2C(F)(F)F)c(C(F)(F)F)c1` (repeat unit) was 346.00 °C; that for `*c1ccc(C(c2ccc(N3C(=O)c4ccc(-c5ccc6c(c5)C(=O)N(*)C6=O)cc4C3=O)cc2)(C(F)(F)F)C(F)(F)F)cc1` (repeat unit) was 343.00 °C.
The molecule `*c1ccc(Cc2ccc(N3C(=O)c4ccc(S(=O)(=O)c5ccc6c(c5)C(=O)N(*)C6=O)cc4C3=O)cc2)cc1` (repeat unit) showed a glass transition temperature of 319.00 °C.
`*c1ccc(N2C(=O)c3ccc(C(c4ccc5c(c4)C(=O)N(c4ccc(N6C(=O)c7ccc(-c8ccc9c(c8)C(=O)N(*)C9=O)cc7C6=O)cc4)C5=O)(C(F)(F)F)C(F)(F)F)cc3C2=O)cc1` (repeat unit) gave a glass transition temperature of 342.00 °C.
For `*c1ccc(OCC2CCC(COc3ccc(N4C(=O)c5ccc(-c6ccc7c(c6)C(=O)N(*)C7=O)cc5C4=O)cc3)CC2)cc1` (repeat unit) the value was 254.40 °C.
For `*c1ccc(Oc2ccc(-c3nc4ccc(Oc5ccc(N6C(=O)c7ccc(C(c8ccc9c(c8)C(=O)N(c8ccc(Oc%10ccc%11nc(*)c(-c%12ccccc%12)nc%11c%10)cc8)C9=O)(C(F)(F)F)C(F)(F)F)cc7C6=O)cc5)cc4nc3-c3ccccc3)cc2)cc1` (repeat unit) the value was 267.00 °C.
Molecule `*c1ccc(Oc2ccc(C(=O)c3cccc(C(=O)c4ccc(Oc5ccc(N6C(=O)c7ccc(Oc8ccc(Oc9ccc(Oc%10ccc%11c(c%10)C(=O)N(*)C%11=O)cc9)cc8)cc7C6=O)cc5)cc4)c3)cc2)cc1` (repeat unit) had a glass transition temperature of 192.00 °C.
`*c1ccc(Oc2ccc(C(=O)c3cccc(C(=O)c4ccc(Oc5ccc(N6C(=O)c7ccc(Oc8ccc9c(c8)C(=O)N(*)C9=O)cc7C6=O)cc5)cc4)n3)cc2)cc1` (repeat unit) came in with a glass transition temperature of 208.60 °C.
The molecule `*c1ccc(Oc2ccc(C(=O)c3cccc(C(=O)c4ccc(Oc5ccc(N6C(=O)c7ccc(Oc8ccc9c(c8)C(=O)N(*)C9=O)cc7C6=O)cc5C(F)(F)F)cc4)n3)cc2)c(C(F)(F)F)c1` (repeat unit) showed a glass transition temperature of 212.20 °C.
For `*c1ccc(Oc2ccc(N3C(=O)c4ccc(-c5ccc6c(c5)C(=O)N(*)C6=O)cc4C3=O)cc2)cc1` (repeat unit) the value was 279.00 °C; for `*c1ccc(Oc2ccc(N3C(=O)c4ccc(-c5ccc6c(c5)C(=O)N(*)C6=O)cc4C3=O)cc2Br)c(Br)c1` (repeat unit), 275.00 °C.
For `*c1ccc(Oc2ccc(N3C(=O)c4ccc(-c5cccc6c5C(=O)N(*)C6=O)cc4C3=O)cc2)cc1` (repeat unit) the value was 320.00 °C; for `*c1ccc(Oc2ccc(N3C(=O)c4ccc(P(=O)(c5ccccc5)c5ccc6c(c5)C(=O)N(*)C6=O)cc4C3=O)cc2)cc1` (repeat unit), 318.00 °C.
For the molecule `*c1ccc(Oc2ccc(N3C(=O)c4ccc(S(=O)(=O)c5ccc6c(c5)C(=O)N(*)C6=O)cc4C3=O)cc2)cc1` (repeat unit), the glass transition temperature worked out at 283.50 °C.
`*c1ccc(Oc2ccc(Oc3ccc(N4C(=O)c5ccc(-c6ccc7c(c6)C(=O)N(*)C7=O)cc5C4=O)cc3)c(-c3ccccc3)c2)cc1` (repeat unit) displayed a glass transition temperature of 247.00 °C.
In turn, `*c1ccc(Oc2ccc(S(=O)(=O)c3ccc(Oc4ccc(N5C(=O)c6ccc([Si](C)(C)c7ccc8c(c7)C(=O)N(*)C8=O)cc6C5=O)cc4)cc3)cc2)cc1` (repeat unit) displayed a glass transition temperature of 246.00 °C.
The molecule `*c1ccc(Oc2ccccc2Oc2ccc(N3C(=O)c4ccc(-c5ccc6c(c5)C(=O)N(*)C6=O)cc4C3=O)cc2)cc1` (repeat unit) registered a glass transition temperature of 241.00 °C.
For `*c1ccc(Sc2ccc(Sc3ccc(Sc4ccc(N5C(=O)c6ccc(-c7cccc8c7C(=O)N(*)C8=O)cc6C5=O)cc4)cc3)cc2)cc1` (repeat unit), the glass transition temperature came out at 226.70 °C.
With `*c1ccc2c(c1)C(=O)N(c1ccc(C(c3ccc(N4C(=O)c5ccc(C(*)(C(F)(F)F)C(F)(F)F)cc5C4=O)cc3)(C(F)(F)F)C(F)(F)F)cc1)C2=O` (repeat unit), the glass transition temperature was 315.10 °C.
`*c1ccc2c(c1)C(=O)N(c1ccc(C(c3ccccc3)(c3ccc(N4C(=O)c5ccc(C(*)(C(F)(F)F)C(F)(F)F)cc5C4=O)cc3)C(F)(F)F)cc1)C2=O` (repeat unit) registered a glass transition temperature of 305.00 °C.
For `*c1ccc2c(c1)C(=O)N(c1ccc(C3(c4ccc(N5C(=O)c6ccc(C(*)(C(F)(F)F)C(F)(F)F)cc6C5=O)cc4)c4ccccc4-c4ccccc43)cc1)C2=O` (repeat unit) the value was 370.00 °C.
Consider `*c1ccc2c(c1)C(=O)N(c1ccc(Cc3ccc(N4C(=O)c5ccc(C(*)(C(F)(F)F)C(F)(F)F)cc5C4=O)cc3)cc1)C2=O` (repeat unit), for which the glass transition temperature is 297.00 °C.
The molecule `*c1ccc2c(c1)C(=O)N(c1ccc(NC(=O)C(F)(F)C(F)(F)C(F)(F)C(F)(F)C(F)(F)C(F)(F)C(=O)Nc3ccc(N4C(=O)c5ccc(C(*)(C(F)(F)F)C(F)(F)F)cc5C4=O)cc3)cc1)C2=O` (repeat unit) gave a glass transition temperature of 265.00 °C.
As for `*c1ccc2c(c1)C(=O)N(c1ccc(OCCN(CCOc3ccc(N4C(=O)c5ccc(C(*)(C(F)(F)F)C(F)(F)F)cc5C4=O)cc3)c3ccccc3)cc1)C2=O` (repeat unit), the glass transition temperature stood at 170.00 °C.
`*c1ccc2c(c1)C(=O)N(c1ccc(OCCOCCOc3ccc(N4C(=O)c5ccc(C(*)(C(F)(F)F)C(F)(F)F)cc5C4=O)cc3)cc1)C2=O` (repeat unit) yielded a glass transition temperature of 187.50 °C.
`*c1ccc2c(c1)C(=O)N(c1ccc(Oc3ccc(N4C(=O)c5ccc(C(*)O[Si](C)(C)O[Si](C)(C)O[Si](C)(C)C)cc5C4=O)cc3)cc1)C2=O` (repeat unit) displayed a glass transition temperature of 167.00 °C.
Regarding `*c1ccc2c(c1)C(=O)N(c1ccc(Oc3ccc(N4C(=O)c5ccc(C(F)(F)C(F)(F)C(F)(F)C(F)(F)C(F)(F)C(F)(F)C(*)(F)F)cc5C4=O)cc3)cc1)C2=O` (repeat unit), the glass transition temperature came to 178.00 °C.
For `*c1ccc2c(c1)C(=O)N(c1ccc(Oc3ccc(N4C(=O)c5ccc(C(F)(F)C(F)(F)C(F)(F)C(F)(F)C(F)(F)C(F)(F)C(F)(F)C(*)(F)F)cc5C4=O)cc3)cc1)C2=O` (repeat unit) the value was 186.00 °C.
Turning to `*c1ccc2c(c1)C(=O)N(c1ccc(Oc3ccccc3Oc3ccc(N4C(=O)c5ccc(C(*)(C(F)(F)F)C(F)(F)F)cc5C4=O)cc3C(F)(F)F)c(C(F)(F)F)c1)C2=O` (repeat unit), the glass transition temperature stood at 247.00 °C.
In turn, `*c1ccc2c(c1)C(=O)N(c1ccc(Sc3ccc(Oc4ccc(Sc5ccc(N6C(=O)c7ccc(C(*)(C(F)(F)F)C(F)(F)F)cc7C6=O)cc5)cc4)cc3)cc1)C2=O` (repeat unit) displayed a glass transition temperature of 242.00 °C.
Molecule `*c1ccc2c(c1)C(=O)N(c1ccc3c(c1)Cc1cc(N4C(=O)c5ccc(C(*)(C(F)(F)F)C(F)(F)F)cc5C4=O)ccc1-3)C2=O` (repeat unit) returned a glass transition temperature of 394.00 °C.
With `*c1ccc2c(c1)C(=O)N(c1cccc(C(F)(F)C(F)(F)C(F)(F)c3cccc(N4C(=O)c5ccc(C(F)(F)C(F)(F)C(F)(F)C(F)(F)C(F)(F)C(F)(F)C(*)(F)F)cc5C4=O)c3)c1)C2=O` (repeat unit), the glass transition temperature was 133.50 °C.
Regarding `*c1ccc2c(c1)C(=O)N(c1cccc(C(c3cccc(N4C(=O)c5ccc(C(*)(C(F)(F)F)C(F)(F)F)cc5C4=O)c3)(C(F)(F)F)C(F)(F)F)c1)C2=O` (repeat unit), the glass transition temperature amounted to 263.00 °C.
`*c1ccc2c(c1)C(=O)N(c1cccc(Oc3ccc(N4C(=O)c5ccc(-c6c(-c7ccccc7)c(-c7ccccc7)c(-c7ccc(Oc8ccc(-c9c(-c%10ccccc%10)c(-c%10ccccc%10)c(*)c(-c%10ccccc%10)c9-c9ccccc9)cc8)cc7)c(-c7ccccc7)c6-c6ccccc6)cc5C4=O)cc3)c1)C2=O` (repeat unit): the glass transition temperature was 309.00 °C.
`*c1ccc2c(c1)C(=O)N(c1ccccc1Oc1ccc(N3C(=O)c4ccc(C(*)(C(F)(F)F)C(F)(F)F)cc4C3=O)cc1)C2=O` (repeat unit) gave a glass transition temperature of 276.00 °C.
For the molecule `*c1cccc(C(c2cccc(N3C(=O)c4ccc(-c5ccc6c(c5)C(=O)N(*)C6=O)cc4C3=O)c2)(C(F)(F)F)C(F)(F)F)c1` (repeat unit), the glass transition temperature amounted to 267.00 °C.
With `*c1cccc(N2C(=O)c3ccc(C(c4ccc5c(c4)C(=O)N(c4cccc(N6C(=O)c7ccc(-c8ccc9c(c8)C(=O)N(*)C9=O)cc7C6=O)c4)C5=O)(C(F)(F)F)C(F)(F)F)cc3C2=O)c1` (repeat unit), the glass transition temperature is 308.00 °C.
`*c1cccc(OCCCCCCCCCCOc2cccc(N3C(=O)c4ccc(-c5ccc6c(c5)C(=O)N(*)C6=O)cc4C3=O)c2)c1` (repeat unit): the glass transition temperature worked out at 125.00 °C.
`*c1cccc(OCCCCCCCCOc2cccc(N3C(=O)c4ccc(-c5ccc6c(c5)C(=O)N(*)C6=O)cc4C3=O)c2)c1` (repeat unit) showed a glass transition temperature of 138.00 °C.
Consider `*c1cccc(OCCCCCCCCOc2cccc(N3C(=O)c4ccc(-c5cccc6c5C(=O)N(*)C6=O)cc4C3=O)c2)c1` (repeat unit), for which the glass transition temperature is 142.00 °C.
Molecule `*c1cccc(OCCCCCCOc2cccc(N3C(=O)c4ccc(-c5cccc6c5C(=O)N(*)C6=O)cc4C3=O)c2)c1` (repeat unit) registered a glass transition temperature of 157.00 °C.
For `*c1cccc(OCCCCCOc2cccc(N3C(=O)c4ccc(-c5cccc6c5C(=O)N(*)C6=O)cc4C3=O)c2)c1` (repeat unit) the value was 168.00 °C.
For `*c1cccc(OCCCCOc2cccc(N3C(=O)c4ccc(-c5ccc6c(c5)C(=O)N(*)C6=O)cc4C3=O)c2)c1` (repeat unit) the value was 175.00 °C.
